The NIST ThermoML archive (doi:10.1016/j.jct.2013.11.005)
Numbers after ± are expanded uncertainties.

Settings: for viscosity / mass density: 101.33 kPa, Liquid; for viscosity: Falling or rolling sphere viscometry; for mass density: Vibrating tube method; for surface tension liquid-gas: Pendant drop shape

| SMILES | viscosity (293.15 K) | mass density (293.15 K) | surface tension liquid-gas (298.15 K) | viscosity (298.15 K) | mass density (298.15 K) | surface tension liquid-gas (303.15 K) | viscosity (303.15 K) | mass density (303.15 K) | surface tension liquid-gas (313.15 K) | viscosity (313.15 K) | mass density (313.15 K) | surface tension liquid-gas (323.15 K) | viscosity (323.15 K) | mass density (323.15 K) | viscosity (333.15 K) | mass density (333.15 K) | viscosity (343.15 K) | mass density (343.15 K) | viscosity (353.15 K) | mass density (353.15 K) |
| --- | --- | --- | --- | --- | --- | --- | --- | --- | --- | --- | --- | --- | --- | --- | --- | --- | --- | --- | --- | --- |
| CCn1cc[n+](C)c1.N#C[S-] [1-ethyl-3-methylimidazolium thiocyanate] | 28.27 ± 0.67 mPa·s | 1120.02 ± 1.1 kg/m3 | 54.1 ± 0.8 mN/m | 23.79 ± 0.56 mPa·s | 1116.97 ± 1.1 kg/m3 | 53.6 ± 0.8 mN/m | 20.25 ± 0.48 mPa·s | 1113.91 ± 1.1 kg/m3 | 52.9 ± 0.8 mN/m | 15.13 ± 0.36 mPa·s | 1107.95 ± 1.1 kg/m3 | 52.1 ± 0.8 mN/m | 11.73 ± 0.28 mPa·s | 1101.84 ± 1.1 kg/m3 | 9.36 ± 0.22 mPa·s | 1095.89 ± 1 kg/m3 | 7.65 ± 0.18 mPa·s | 1089.98 ± 1 kg/m3 | 6.38 ± 0.15 mPa·s | 1084.12 ± 1 kg/m3 |
| CCCCn1cc[n+](C)c1.N#C[S-] [1-butyl-3-methylimidazolium thiocyanate] | 76.08 ± 2 mPa·s | 1073.99 ± 0.99 kg/m3 | 47 ± 0.7 mN/m | 59.81 ± 1.4 mPa·s | 1071.04 ± 0.98 kg/m3 | 46.6 ± 0.7 mN/m | 47.84 ± 1.1 mPa·s | 1068.08 ± 0.98 kg/m3 | 45.7 ± 0.7 mN/m | 32.2 ± 0.77 mPa·s | 1062.21 ± 0.97 kg/m3 | 44.8 ± 0.7 mN/m | 22.97 ± 0.54 mPa·s | 1056.39 ± 0.95 kg/m3 | 17.12 ± 0.4 mPa·s | 1050.61 ± 0.94 kg/m3 | 13.2 ± 0.31 mPa·s | 1044.87 ± 0.93 kg/m3 | 10.5 ± 0.25 mPa·s | 1039.17 ± 0.92 kg/m3 |
